Measurements reported in ChEMBL document CHEMBL1944591, “Synthesis and biological evaluation of quinazoline and quinoline bearing 2,2,6,6-tetramethylpiperidine-N-oxyl as potential epidermal growth factor receptor(EGFR) tyrosine kinase inhibitors and EPR bio-probe agents” (Eur J Med Chem, 2012).

Key:
A-431 [1] = test: Cytotoxicity against human A431 cells after 72 hrs by MTT assay; format: functional, cell-based
[2] = molecular target: T1, Epidermal growth factor receptor (Homo sapiens, UniProt P00533); test: Inhibition of EGFR after 50 mins by HTRF assay
T1 sequence (P00533 whole entry): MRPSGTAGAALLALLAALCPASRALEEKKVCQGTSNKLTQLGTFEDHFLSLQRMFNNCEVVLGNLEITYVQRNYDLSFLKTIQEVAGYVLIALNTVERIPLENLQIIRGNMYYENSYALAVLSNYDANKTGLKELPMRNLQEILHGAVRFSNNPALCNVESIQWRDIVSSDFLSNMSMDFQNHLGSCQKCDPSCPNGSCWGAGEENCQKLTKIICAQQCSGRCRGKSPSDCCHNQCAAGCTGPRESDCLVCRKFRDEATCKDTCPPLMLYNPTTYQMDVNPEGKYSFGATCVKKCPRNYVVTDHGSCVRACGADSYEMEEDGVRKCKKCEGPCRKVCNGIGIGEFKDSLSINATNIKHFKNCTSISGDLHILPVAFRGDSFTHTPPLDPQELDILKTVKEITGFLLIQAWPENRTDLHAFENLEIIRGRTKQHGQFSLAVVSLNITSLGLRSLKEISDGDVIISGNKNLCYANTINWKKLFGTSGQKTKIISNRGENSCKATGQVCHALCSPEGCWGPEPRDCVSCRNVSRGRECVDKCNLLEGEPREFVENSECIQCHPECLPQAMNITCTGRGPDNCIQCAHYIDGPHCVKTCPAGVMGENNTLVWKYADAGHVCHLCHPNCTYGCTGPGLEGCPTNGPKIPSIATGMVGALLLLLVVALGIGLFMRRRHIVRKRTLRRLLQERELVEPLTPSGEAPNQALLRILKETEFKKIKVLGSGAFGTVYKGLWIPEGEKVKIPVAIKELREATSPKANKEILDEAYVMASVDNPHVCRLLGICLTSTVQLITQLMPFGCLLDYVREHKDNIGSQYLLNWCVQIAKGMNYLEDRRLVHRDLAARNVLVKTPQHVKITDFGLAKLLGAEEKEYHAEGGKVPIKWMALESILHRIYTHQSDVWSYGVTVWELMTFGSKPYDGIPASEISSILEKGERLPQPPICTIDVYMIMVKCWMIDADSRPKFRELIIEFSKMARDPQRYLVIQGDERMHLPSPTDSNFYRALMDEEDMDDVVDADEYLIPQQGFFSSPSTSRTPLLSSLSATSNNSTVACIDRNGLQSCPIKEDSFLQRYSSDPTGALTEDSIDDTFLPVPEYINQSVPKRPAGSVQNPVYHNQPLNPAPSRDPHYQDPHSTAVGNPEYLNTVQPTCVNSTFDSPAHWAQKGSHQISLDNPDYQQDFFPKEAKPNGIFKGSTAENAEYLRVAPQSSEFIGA

[3] = molecular target: T1, Epidermal growth factor receptor; conditions: at 10 µM
A-431 [4] = test: Cellular uptake in human A431 cells after 8 hrs by EPR spectroscopy; format: ADME, cell-based; conditions: a-431, 8 h
A-431 [5] = test: Cytotoxicity against human A431 cells at 300 uM after 72 hrs by MTT assay; format: functional; conditions: A-431, 72 h

| SMILES | IC50 (A-431 [1]; Homo sapiens, A-431, 72 h) | IC50 [2] | inhibition [3] | Drug uptake (A-431 [4]) | IC50 (A-431 [1]; a-431) | inhibition at 300 µM (A-431 [5]) |
| --- | --- | --- | --- | --- | --- | --- |
| COc1cc2ncc(C(=O)O)c(Nc3cccc(Cl)c3)c2cc1OC | 97.9 µM | – | – | – | – | – |
| COc1cc2ncc(C(=O)O)c(Nc3cccc(Br)c3)c2cc1OC | 94 µM | 8.72 µM | 60.1% | – | – | – |
| COc1cc2ncc(C(=O)NC3CC(C)(C)N([O])C(C)(C)C3)c(Nc3cccc(Br)c3)c2cc1OC | 43.2 µM | 0.342 µM | 90.3% | – | – | – |
| CC1(C)CC(C(=O)Nc2ccc3ncnc(Nc4cccc(Cl)c4)c3c2)CC(C)(C)N1[O] | 26.9 µM | 0.065 µM | 99.4% | – | – | – |
| Nc1ccc2ncnc(Nc3ccc(F)c(Cl)c3)c2c1 | – | 0.029 µM | 99.5% | – | – | – |
| CC1(C)CC(C(=O)Nc2ccc3ncnc(Nc4cccc(Br)c4)c3c2)CC(C)(C)N1[O] | 27.4 µM | 0.031 µM | 99.4% | – | – | – |
| CC1(C)CC(C(=O)Nc2ccc3ncnc(Nc4ccc(F)c(Cl)c4)c3c2)CC(C)(C)N1[O] | 24.7 µM | 0.015 µM | 99.5% | Active | – | – |
| Nc1ccc2ncnc(Nc3cccc(Cl)c3)c2c1 | – | – | 98.9% | – | 31.9 µM | – |
| COc1cc2ncc(C(=O)NC3CC(C)(C)N([O])C(C)(C)C3)c(Nc3cccc(Cl)c3)c2cc1OC | 45.5 µM | 0.623 µM | 88.3% | – | – | – |
| CC1(C)CCCC(C)(C)N1[O] | > 300 µM | – | – | – | – | < 50% |
| COc1cc2ncc(C(=O)NC3CC(C)(C)N([O])C(C)(C)C3)c(Nc3ccc(F)c(Cl)c3)c2cc1OC | 38.1 µM | 0.422 µM | 92.8% | Active | – | – |
| COc1cc2ncc(C(=O)O)c(Nc3ccc(F)c(Cl)c3)c2cc1OC | 88.8 µM | 9.28 µM | 66.5% | – | – | – |
| Nc1ccc2ncnc(Nc3cccc(Br)c3)c2c1 | 34.9 µM | – | – | – | – | – |
